{"source": "patent US20070254877A1", "about": "“Indole Derivative and Use for Treatment of Cancer” (Takada Pharmaceutical Company Limited, priority 2004, published 2007)", "note": "Counter-ions that a name gives are not always drawn.", "data": [{"target": "T1, VEGFR2 intracellular domain protein (Homo sapiens, UniProt P35968)", "T1 construct": "made in house; host or cells: SF-21 insect cells infected with recombinant baculovirus BAC-VEGFR2", "T1 sequence (P35968 786-1356 limits assumed)": "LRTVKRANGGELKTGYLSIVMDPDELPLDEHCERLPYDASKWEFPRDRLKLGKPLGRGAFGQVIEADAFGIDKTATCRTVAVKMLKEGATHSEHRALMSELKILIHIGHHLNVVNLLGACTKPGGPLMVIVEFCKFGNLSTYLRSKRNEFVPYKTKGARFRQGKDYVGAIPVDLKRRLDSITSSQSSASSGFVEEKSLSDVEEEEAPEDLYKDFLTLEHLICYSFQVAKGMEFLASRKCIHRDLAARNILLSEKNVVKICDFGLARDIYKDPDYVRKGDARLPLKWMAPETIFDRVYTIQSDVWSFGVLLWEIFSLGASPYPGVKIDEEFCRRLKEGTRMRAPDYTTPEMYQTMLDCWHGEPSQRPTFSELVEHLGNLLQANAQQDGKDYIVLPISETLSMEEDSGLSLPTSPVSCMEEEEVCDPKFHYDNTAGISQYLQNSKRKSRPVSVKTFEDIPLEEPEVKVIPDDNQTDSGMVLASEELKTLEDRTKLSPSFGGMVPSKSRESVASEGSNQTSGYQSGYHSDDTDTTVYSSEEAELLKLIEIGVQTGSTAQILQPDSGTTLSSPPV", "experiment": "Determination of VEGF Receptor 2 Kinase (VEGFR2) inhibitory activity (AlphaScreen)", "assay_type": "biochemical", "conditions": "test compound at 1 μM; ATP 25 μM buffer, 25° C., 5 min; read-out: kinase inhibitory rate (%)", "procedure": "Human VEGF receptor 2 (hereinafter to be abbreviated as VEGFR2) gene was cloned by PCR using cDNA Libraries Human Placenta (Clontech) as a template. The primer used for PCR was prepared from nucleotide sequence (Genbank Accession AF035121) information of VEGFR2 gene by adding a nucleotide sequence encoding flag peptide and a restriction enzyme recognition sequence to a nucleotide sequence (2671-4374 of Genbank Accession AF035121) encoding the VEGFR2 intracellular domain region, so that the protein contains an N-terminal flag tag. The primer nucleotide sequence is shown below.\nSF-21 cells were sown at 1×10^6 cells/ml to Sf-900II SFM medium (1 L, Invitrogen) containing 10% fetal bovine serum (trace), 50 mg/L gentamicin (Invitrogen) and 0.1% Pluronic F-68 (Invitrogen), and shaking culture was performed using a 2 L volume Erlenmeyer flask at 27° C., 100 rpm. After culturing for 24 hrs, recombinant baculovirus BAC-VEGFR2 (13.4 mL) was added, and the mixture was further cultured for 3 days. The culture medium was centrifuged at 2,000 rpm for 5 min to give virus-infected cells. The infected cells were washed with a phosphate buffered saline (Invitrogen), centrifuged under the same conditions, and the cells were preserved at −80° C. The cryopreserved cells were thawed in ice, suspended in buffer A (50 mM Tris buffer (30 mL, pH 7.4) containing 20% glycerol, 0.15 M NaCl) supplemented with Complete Protease Inhibitor (Boehringer), and ruptured 3 times with a Polytron homogenizer (Kinematica) at 20,000 rpm for 30 sec. The rupture medium was clarified by centrifugation at 40,000 rpm for 30 min and filtered with a 0.45 μm filter. The filtrate was passed through a column packed with Anti-FLAG M2 Affinity Gel (4 mL, Sigma) at a flow rate of about 0.5 mL/min. The column was washed with buffer A, and eluted with buffer A containing 100 μg/mL of FLAG peptide. The eluate was concentrated with Vivaspin 20 (Vivascience) having a molecular weight cut off of 30K. The buffer of this concentrate was exchanged using NAP™ 25 column (Amersham Bioscience) equilibrated with buffer A. The fractions containing VEGFR2 intracellular domain protein were collected, glycerol was added to the final concentration of 50% and cryopreserved at −80° C.\nA test compound dissolved in dimethyl sulfoxide (DMSO) was diluted with a buffer (50 mM Tris-HCl (pH 7.5), 5 mM MgCl2, 5 mM MnCl2, 2 mM dithiothreitol, 0.01% Tween-20). To this compound solution (5 μl) was added a buffer […] containing 50 ng/ml of VEGFR2 intracellular domain protein and 250 ng/ml of biotin labeled polypeptide biotinyl-poly-Glu:Tyr (4:1) (CIS bio International). To the obtained mixture was added a buffer (10 μl) containing ATP (25 μM), the mixture was allowed to react at 25° C. for 5 min and the reaction was quenched with 25 μl of a stop solution (100 mM EDTA disodium salt, 62.5 mM HEPES buffer (pH 7.4), 250 mM NaCl, 0.1% bovine serum albumin, 10 μg/ml AlphaScreen assay streptavidin donor beads (Streptavidin Donor beads: PerkinElmer), 10 μg/ml AlphaScreen assay anti-phosphotyrosine recognition antibody PY-100 binding acceptor beads (Anti-phosphotyrosine (P-Tyr-100) Acceptor beads: PerkinElmer)). The reaction solution was allowed to stand at 25° C. for 16 hrs, and the […] using a plate reader Fusion™ (manufactured by PerkinElmer). The kinase inhibitory rate (%) of the test compound was calculated by the following formula: Inhibitory rate (%)=(1−(count of test compound−blank)÷(control−blank))×100\nThe count of the solution reacted without addition of the compound was used as a “control”, and the count of the solution without the compound and ATP was used as a “blank”.", "units": {"inhibition at 1 µM": "%"}, "values": [{"smiles": "O=C(c1ccc2[nH]c3c(c2c1)CCCc1cn[nH]c1-3)N1CCC(N2CCCCCC2)CC1", "note": "[Example 11, 8-[(4-azepan-1-ylpiperidin-1-yl)carbonyl]-4,5,6,11-tetrahydro-1H-pyrazolo[4′,3′:6,7]cyclohepta[1,2-b]indole hydrochloride]", "inhibition at 1 µM": "≥ 90"}, {"smiles": "O=C(c1ccc2[nH]c3c(c2c1)CCCc1cn[nH]c1-3)N1CCC(N2CCSCC2)CC1", "note": "[Example 15, 8-[(4-thiomorpholin-4-ylpiperidin-1-yl)carbonyl]-4,5,6,11-tetrahydro-1H-pyrazolo[4′,3′:6,7]cyclohepta[1,2-b]indole hydrochloride]", "inhibition at 1 µM": "≥ 90"}, {"smiles": "O=C(c1ccc2[nH]c3c(c2c1)CCCc1cn[nH]c1-3)N1CCC(NCc2ccccc2)CC1", "note": "[Example 17, N-benzyl-1-(4,5,6,11-tetrahydro-1H-pyrazolo[4′,3′:6,7]cyclohepta[1,2-b]indol-8-ylcarbonyl)piperidin-4-amine hydrochloride]", "inhibition at 1 µM": "≥ 90"}, {"smiles": "O=C(c1ccc2[nH]c3c(c2c1)CCCc1cn[nH]c1-3)N1CCC(O)(c2ccc(F)cc2)CC1", "note": "[Example 41, 4-(4-fluorophenyl)-1-(4,5,6,11-tetrahydro-1H-pyrazolo[4′,3′:6,7]cyclohepta[1,2-b]indol-8-ylcarbonyl)piperidin-4-ol]", "inhibition at 1 µM": "≥ 80"}, {"smiles": "O=C(c1ccc2[nH]c3c(c2c1)CCCc1cn[nH]c1-3)N1CCC(O)(c2cccc(F)c2)CC1", "note": "[Example 42, 4-(3-fluorophenyl)-1-(4,5,6,11-tetrahydro-1H-pyrazolo[4′,3′:6,7]cyclohepta[1,2-b]indol-8-ylcarbonyl)piperidin-4-ol]", "inhibition at 1 µM": "≥ 80"}, {"smiles": "O=C(c1ccc2[nH]c3c(c2c1)CCCc1cn[nH]c1-3)N1CCC(O)(c2ccccc2F)CC1", "note": "[Example 43, 4-(2-fluorophenyl)-1-(4,5,6,11-tetrahydro-1H-pyrazolo[4′,3′:6,7]cyclohepta[1,2-b]indol-8-ylcarbonyl)piperidin-4-ol]", "inhibition at 1 µM": "≥ 80"}, {"smiles": "O=C(c1ccc2[nH]c3c(c2c1)CCCc1cn[nH]c1-3)N1CCC(O)(c2ccc(Cl)cc2)CC1", "note": "[Example 44, 4-(4-chlorophenyl)-1-(4,5,6,11-tetrahydro-1H-pyrazolo[4′,3′:6,7]cyclohepta[1,2-b]indol-8-ylcarbonyl)piperidin-4-ol]", "inhibition at 1 µM": "≥ 80"}, {"smiles": "O=C(c1ccc2[nH]c3c(c2c1)CCCc1cn[nH]c1-3)N1CCC(O)(c2cccc(Cl)c2)CC1", "note": "[Example 45, 4-(3-chlorophenyl)-1-(4,5,6,11-tetrahydro-1H-pyrazolo[4′,3′:6,7]cyclohepta[1,2-b]indol-8-ylcarbonyl)piperidin-4-ol]", "inhibition at 1 µM": "≥ 80"}, {"smiles": "O=C(c1ccc2[nH]c3c(c2c1)CCCc1cn[nH]c1-3)N1CCC(O)(c2ccccc2Cl)CC1", "note": "[Example 46, 4-(2-chlorophenyl)-1-(4,5,6,11-tetrahydro-1H-pyrazolo[4′,3′:6,7]cyclohepta[1,2-b]indol-8-ylcarbonyl)piperidin-4-ol]", "inhibition at 1 µM": "≥ 80"}, {"smiles": "O=C(c1ccc2[nH]c3c(c2c1)CCCc1cn[nH]c1-3)N1CCC(O)(c2ccc(C(F)(F)F)cc2)CC1", "note": "[Example 47, 1-(4,5,6,11-tetrahydro-1H-pyrazolo[4′,3′:6,7]cyclohepta[1,2-b]indol-8-ylcarbonyl)-4-[4-(trifluoromethyl)phenyl]piperidin-4-ol]", "inhibition at 1 µM": "≥ 80"}, {"smiles": "O=C(c1ccc2[nH]c3c(c2c1)CCCc1cn[nH]c1-3)N1CCC(O)(c2cccc(C(F)(F)F)c2)CC1", "note": "[Example 48, 1-(4,5,6,11-tetrahydro-1H-pyrazolo[4′,3′:6,7]cyclohepta[1,2-b]indol-8-ylcarbonyl)-4-[3-(trifluoromethyl)phenyl]piperidin-4-ol]", "inhibition at 1 µM": "≥ 80"}, {"smiles": "O=C(c1ccc2[nH]c3c(c2c1)CCCc1cn[nH]c1-3)N1CCC(O)(c2ccccc2C(F)(F)F)CC1", "note": "[Example 49, 1-(4,5,6,11-tetrahydro-1H-pyrazolo[4′,3′:6,7]cyclohepta[1,2-b]indol-8-ylcarbonyl)-4-[2-(trifluoromethyl)phenyl]piperidin-4-ol]", "inhibition at 1 µM": "≥ 80"}]}]}
